According to US5104875A, “Combination preparations containing rifampicin and thioacetazon” (priority 1989, dated 1992):
Like-named read-outs stand apart in the source and are kept apart here.

Experiments:
[1] = test system: mycobacteria of the avium complex, patient Ka-B; test: MIC alone and in combination; assay type: cell-based; details: Homo sapiens, single
[2] = test system: M. avium 227; test: MIC of the individual substances
Method: (§1) The bacteria were cultivated in a liquid nutrient medium according to Lockemann (cf. "Nachweisverfahren fur Mykobakterien aus Untersuchungsmaterial, III, Nahrbodenrezepte zur Kultur von Tuberkulosebakterien, 1978, Publisher: Deutsches Zentralkomitee zur Bekampfung der Tuberkulose, Poppenhusenstrasse 14c, 2000 Hamburg 60) enriched with 0.5 % albumin and 1 % human serum. In each case 5×10^-3 to 5 ×10^-5 mg, referred to the weight in wet state, of the mycobacteria strains were incubated in 2 ml of the culture liquid at 37° C. with graded concentrations of RMP and Thz. Readings were taken from the culture tubes after 8 to 15 days.
(§2) The MIC is the concentration of the growth inhibitor in μg/ml, at which no multiplication of the seeded cells can be established.

[3] = test system: M.tuberculosis H37Rv; test: chess-board titration, growth inhibition; assay type: cell-based
[4] = test system: RMP-resistant patient strain M. avium BK; test: chess-board titration, growth inhibition; assay type: cell-based;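 also: +++ means growth as in control and minus means complete inhibition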
[5] = test system: mycobacteria of the avium complex, patient Bi; test: MIC alone and in combination; assay type: cell-based; details: Homo sapiens, single
[6] = test system: M. avium Ro; test: MIC of the individual substances; details: for MIC: single substance
Method: as §1, §2

[7] = test system: mycobacteria of the avium complex, patient Me; test: MIC alone and in combination; assay type: cell-based; details: Homo sapiens, single
[8] = test system: mycobacteria of the avium complex, patient Sa; test: MIC alone and in combination; assay type: cell-based; details: Homo sapiens, single
[9] = test system: mycobacteria of the avium complex, patient two; test: MIC alone and in combination; assay type: cell-based; details: Homo sapiens, single
[10] = test system: M. avium Bi; test: MIC of the individual substances; details: single substance
Method: as §1, §2

[11] = test system: mycobacteria of the avium complex, patient Vo; test: MIC alone and in combination; assay type: cell-based; details: Homo sapiens, single
[12] = test system: mycobacteria of the MOTT-complex; test: effect when administered alone; details: administered alone (cf. Example 2, Table 2 and Table 5)
[13] = test system: mycobacteria of the avium complex, patient Ma; test: MIC alone and in combination; assay type: cell-based; details: Homo sapiens, single
[14] = test system: mycobacteria of the avium complex, patient Wi; test: MIC alone and in combination; assay type: cell-based; details: Homo sapiens, single
[15] = test system: M. avium Dan; test: MIC of the individual substances; details: for MIC: single substance
Method: as §1, §2

[16] = test system: mycobacteria of the avium complex, patient Ku; test: MIC alone and in combination; assay type: cell-based; details: Homo sapiens, single
[17] = test system: mycobacteria of the avium complex, patient one; test: MIC alone and in combination; assay type: cell-based; details: Homo sapiens, single
[18] = higher doses; cited from earlier work
[19] = test system: mycobacteria; details: administered alone in acceptable doses; cited from earlier work
[20] = Mycobacterium avium, 227, read-out: average inhibiting concentration alone

With `CO[C@H]1/C=C/O[C@@]2(C)Oc3c(C)c(O)c4c(O)c(c(/C=N/N5CCN(C)CC5)c(O)c4c3C2=O)NC(=O)/C(C)=C\C=C\[C@H](C)[C@H](O)[C@@H](C)[C@@H](O)[C@@H](C)[C@H](OC(C)=O)[C@@H]1C` [RMP, rifampicin] the MIC [1] was > 32 µg/mL, the MIC ([2]; M. avium 227, single substance) was 8 µg/mL and the MIC [2, 20] was 8 µg/mL. For the same compound, the growth inhibition ([3]; Rifampicin .006 ug/ml, Thioacetazon 0) was “+++”, the growth inhibition ([3]; Rifampicin .012 ug/ml, Thioacetazon 0) was “+++” and the growth inhibition ([3]; Rifampicin .018 ug/ml, Thioacetazon 0) was “+++”. For the same compound, the growth inhibition ([3]; Rifampicin .024 ug/ml, Thioacetazon 0) was “+++”, the growth inhibition ([3]; Rifampicin .030 ug/ml, Thioacetazon 0) was “++” and the growth inhibition ([3]; Rifampicin .036 ug/ml, Thioacetazon 0) was “+”. For the same compound, the growth inhibition ([3]; Rifampicin .042 ug/ml, Thioacetazon 0) was “+”, the growth inhibition ([3]; Rifampicin .048 ug/ml, Thioacetazon 0) was “+” and the growth inhibition ([3]; Rifampicin .054 ug/ml, Thioacetazon 0) was “-”. The growth inhibition ([3]; Rifampicin .06 ug/ml, Thioacetazon 0) was “-”, the growth inhibition ([4]; Rifampicin 0.8 ug/ml, Thioacetazon 0.000) was “+++” and the growth inhibition ([4]; Rifampicin 1.6 ug/ml, Thioacetazon 0.000) was “+++”. For the same compound, the growth inhibition ([4]; Rifampicin 2.4 ug/ml, Thioacetazon 0.000) was “++”, the growth inhibition ([4]; Rifampicin 3.2 ug/ml, Thioacetazon 0.000) was “++” and the growth inhibition ([4]; Rifampicin 4 ug/ml, Thioacetazon 0.000) was “-”. The growth inhibition ([4]; Rifampicin 4.8 ug/ml, Thioacetazon 0.000) was “-”, the growth inhibition ([4]; Rifampicin 5.4 ug/ml, Thioacetazon 0.000) was “-” and the growth inhibition ([4]; Rifampicin 6.4 ug/ml, Thioacetazon 0.000) was “-”. The growth inhibition ([4]; Rifampicin 7.2 ug/ml, Thioacetazon 0.000) was “-”, the growth inhibition ([4]; Rifampicin 8 ug/ml, Thioacetazon 0.000) was “-” and the MIC [5] was 4 µg/mL. The resistance [6] was “completely resistant”, the MIC [6] was > 32 µg/mL and the MIC [7] was 16 µg/mL. It also gave an MIC [8] of 8 µg/mL, an MIC [9] of 32 µg/mL and an MIC [10] of 3 µg/mL. For the same compound, the MIC [11] was 16 µg/mL, the “effect against the mycobacteria of the MOTT-complex” value [12] was “no effect or only a slight effect” and the MIC [13] was > 32 µg/mL. For the same compound, the MIC [14] was > 32 µg/mL, the MIC [15] was 16 µg/mL and the MIC [16] was 32 µg/mL. The MIC [17] was > 32 µg/mL.
In the case of `CC[C@@H](CO)NCCN[C@@H](CC)CO` [EMB, ethambutol], the MIC [1] is reported as > 32 µg/mL, the MIC [5] is reported as 4 µg/mL and the MIC [7] is reported as 8 µg/mL. For the same compound, the MIC [8] was > 32 µg/mL, the MIC [9] was 16 to 32 µg/mL and the MIC [11] was 4 to 8 µg/mL. The MIC [13] was 32 µg/mL, the MIC [14] was > 32 µg/mL and the MIC [16] was > 32 µg/mL. The MIC [17] was > 32 µg/mL.
With `CC(=O)Nc1ccc(C=NNC(N)=S)cc1` [Thz, thioacetazon] the MIC [1] was > 32 µg/mL, the MIC ([2]; M. avium 227, single substance) was 32 µg/mL and the MIC [2, 20] was 32 µg/mL. The growth inhibition ([3]; Thioacetazon .05 ug/ml, Rifampicin 0) was “+++”, the growth inhibition ([3]; Thioacetazon .10 ug/ml, Rifampicin 0) was “+++” and the growth inhibition ([3]; Thioacetazon .15 ug/ml, Rifampicin 0) was “+++”. For the same compound, the growth inhibition ([3]; Thioacetazon .20 ug/ml, Rifampicin 0) was “+++”, the growth inhibition ([3]; Thioacetazon .25 ug/ml, Rifampicin 0) was “+++” and the growth inhibition ([3]; Thioacetazon .30 ug/ml, Rifampicin 0) was “+++”. For the same compound, the growth inhibition ([3]; Thioacetazon .35 ug/ml, Rifampicin 0) was “+++”, the growth inhibition ([3]; Thioacetazon .40 ug/ml, Rifampicin 0) was “+ ++” and the growth inhibition ([3]; Thioacetazon .45 ug/ml, Rifampicin 0) was “+++”. The growth inhibition ([3]; Thioacetazon .50 ug/ml, Rifampicin 0) was “+++”, the growth inhibition ([4]; Thioacetazon 0.8 ug/ml, Rifampicin 0) was “+++” and the growth inhibition ([4]; Thioacetazon 1.6 ug/ml, Rifampicin 0) was “+++”. The growth inhibition ([4]; Thioacetazon 2.4 ug/ml, Rifampicin 0) was “++”, the growth inhibition ([4]; Thioacetazon 3.2 ug/ml, Rifampicin 0) was “++” and the growth inhibition ([4]; Thioacetazon 4 ug/ml, Rifampicin 0) was “++”. The growth inhibition ([4]; Thioacetazon 4.8 ug/ml, Rifampicin 0) was “++”, the growth inhibition ([4]; Thioacetazon 5.6 ug/ml, Rifampicin 0) was “+” and the growth inhibition ([4]; Thioacetazon 6.4 ug/ml, Rifampicin 0) was “+”. For the same compound, the growth inhibition ([4]; Thioacetazon 7.2 ug/ml, Rifampicin 0) was “+”, the growth inhibition ([4]; Thioacetazon 8 ug/ml, Rifampicin 0) was “+” and the MIC [5] was > 32 µg/mL. The resistance [6] was “completely resistant”, the MIC [6] was > 32 µg/mL and the MIC [7] was 32 µg/mL. The MIC [8] was 32 µg/mL, the MIC [9] was 32 µg/mL and the MIC [10] was 3 µg/mL. The MIC [11] was 32 µg/mL, the MIC [13] was > 32 µg/mL and the MIC [14] was 32 µg/mL. For the same compound, the undesirable side-effects [18] was “can lead to undesirable side-effects in higher doses”, the resistance [15] was “resistant” and the MIC [15] was > 32 µg/mL. The MIC [16] was 32 µg/mL, the MIC [17] was 16 µg/mL and the anti-mycobacterial effect [19] was “only of weak effect”.
In the case of `NNC(=O)c1ccncc1` [INH, isonicotinic acid hydrazide], the MIC [1] is reported as 32 µg/mL, the MIC [5] is reported as > 32 µg/mL and the MIC [7] is reported as 16 µg/mL. It also gave an MIC [8] of 32 µg/mL, an MIC [9] of 16 µg/mL and an MIC [11] of 8 µg/mL. The MIC [13] was > 32 µg/mL, the MIC [14] was 16 µg/mL and the MIC [16] was 4 µg/mL. For the same compound, the MIC [17] was 4 µg/mL.
